In paper PMC5585036 (Molecular pharmaceutics, 2017):

T1: Monocarboxylate transporter 6 (MCT6) (Homo sapiens, UniProt O15375)
T1 sequence (O15375 1-505): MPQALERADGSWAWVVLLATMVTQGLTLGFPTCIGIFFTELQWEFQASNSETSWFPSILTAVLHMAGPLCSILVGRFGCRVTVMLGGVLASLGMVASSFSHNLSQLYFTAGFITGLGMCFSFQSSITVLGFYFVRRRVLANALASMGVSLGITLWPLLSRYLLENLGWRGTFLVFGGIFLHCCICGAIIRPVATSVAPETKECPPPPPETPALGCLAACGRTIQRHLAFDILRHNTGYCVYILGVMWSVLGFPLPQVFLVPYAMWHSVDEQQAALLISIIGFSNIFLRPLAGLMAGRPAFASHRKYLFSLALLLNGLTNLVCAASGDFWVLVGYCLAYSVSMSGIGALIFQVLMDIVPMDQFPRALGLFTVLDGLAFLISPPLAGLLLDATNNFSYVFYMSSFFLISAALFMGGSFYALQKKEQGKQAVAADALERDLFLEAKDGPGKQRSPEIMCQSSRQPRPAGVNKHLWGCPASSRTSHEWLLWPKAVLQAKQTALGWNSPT

B1: Monocarboxylate transporter 6 (MCT6) (Homo sapiens) (protein)
chain: T1 sequence (O15375 1-505)

What was measured:
[1] = biological target: T1, Monocarboxylate transporter 6 (MCT6); assay type: cell-based
[2] = biological target: T1, Monocarboxylate transporter 6 (MCT6); test: inhibition of [3H]bumetanide uptake in MCT6-expressing oocytes; assay type: cell-based
[3] = substrate: CCCCNc1cc(C(=O)O)cc(S(N)(=O)=O)c1Oc1ccccc1; test: radiolabeled uptake in MCT6-expressing versus water-injected oocytes; assay type: cell-based, Homo sapiens

Molecule | IC50 [1] | also measured
O=c1c(O)c(-c2ccc(O)cc2O)oc2cc(O)cc(O)c12 [morin] | 33.1 ± 3.29 µM | –
O=C(CCc1ccc(O)cc1)c1c(O)cc(O)cc1O [phloretin] | – | Ki [2]: 22.8 ± 6.95 µM
O=c1c(O)c(-c2ccc(O)c(O)c2)oc2cc(O)cc(O)c12 [quercetin] | 25.3 ± 3.36 µM | –
B1 | – | Km [3]: 60.5 ± 14.1 µM
